Experimental data as given in patent publication US20100056502A1, “COMPOUNDS” (GLAXO GROUP LIMITED, priority 2007, published 2010).
Where a name gives a salt, the structure may show the parent alone.

Test system: Mycobacterium tuberculosis H37Rv
Assay: Mycobacterium tuberculosis H37Rv Inhibition Assay
Format: cell-based
Conditions: ATCC 25618 / H37Rv, H37Rv strain (ATCC25618), resazurin fluorescence readout
Description: The measurement of the minimum inhibitory concentration (MIC) for each tested compound was performed in 96 wells flat-bottom, polystyrene microtiter plates. Ten two-fold drug dilutions in neat DMSO starting at 400 μM were performed. Five μl of these drug solutions were added to 95 μl of Middlebrook 7H9 medium. (Lines A-H, rows 1-10 of the plate layout). Isoniazid was used as a positive control, 8 two-fold dilution of Isoniazid starting at 160 μgml^−1 was prepared and 5 μl of this control curve was added to 95 μl of Middlebrook 7H9 (Difco catalogue Ref. 271310)+ADC medium (Becton Dickinson Catalogue Ref. 211887). (Row 11, lines A-H). Five μl of neat DMSO were added to row 12 (growth and Blank controls).
The inoculum was standardised to approximately 1×10^7 cfu/ml and diluted 1 in 100 in Middlebrook 7H9+ADC medium and 0.025% Tween 80 (Sigma P4780), to produce the final inoculum of H37Rv strain (ATCC25618). One hundred μl of this inoculum was added to the entire plate but G-12 and H-12 wells (Blank controls). All plates were placed in a sealed box to prevent drying out of the peripheral wells and they were incubated at 37° C. without shaking for six days. A resazurin solution was prepared by dissolving one tablet of resazurin (Resazurin Tablets for Milk Testing; Ref 330884Y VWR International Ltd) in 30 ml sterile PBS (phosphate buffered saline). 25 μl of this solution was added to each well. Fluorescence was measured (Spectramax M5 Molecular Devices, Excitation 530 nm, Emission 590 nm) after 48 hours to determine the MIC value.

With `O=C1CSc2ccc(CNC3CCN(CC4CCn5c(=O)ccc6ccc(F)c4c65)CC3)nc2N1` (centres unmarked) [Example 10, 10-fluoro-1-[(4-{[(3-oxo-3,4-dihydro-2H-pyrido[3,2-b][1,4]thiazin-6-yl)methyl]amino}-1-piperidinyl)methyl]-2,3-dihydro-1H,5H-pyrido[3,2,1-ij]quinolin-5-one dihydrochloride] the MIC was ≤ 1.8 µg/mL.

With `O=C1COc2ccc(CNC3CCN(CC4CCn5c(=O)ccc6ccc(F)c4c65)CC3)nc2N1` (centres unmarked) [Example 11, 10-fluoro-1-[(4-{[(3-oxo-3,4-dihydro-2H-pyrido[3,2-b][1,4]oxazin-6-yl)methyl]amino}-1-piperidinyl)methyl]-2,3-dihydro-1H,5H-pyrido[3,2,1-ij]quinolin-5-one dihydrochloride] the MIC was ≤ 1.8 µg/mL.

For `O=C1COc2ccc(CN[C@H]3CCN(CC4CCn5c(=O)ccc6ccc(F)c4c65)C[C@H]3O)nc2N1` (stereo partly drawn) [Example 17, 10-fluoro-1-[((3R,4S)-3-hydroxy-4-{[(3-oxo-3,4-dihydro-2H-pyrido[3,2-b][1,4]oxazin-6-yl)methyl]amino}-1-piperidinyl)methyl]-2,3-dihydro-1H,5H-pyrido[3,2,1-ij]quinolin-5-one dihydrochloride], the MIC was ≤ 1.8 µg/mL.

With `O=C1COc2ccc(CNC3CCN(CC4CCn5c(=O)sc6ccc(F)c4c65)CC3)nc2N1` (centres unmarked) [Example 32, 7-Fluoro-6-[(4-{[(3-oxo-3,4-dihydro-2H-pyrido[3,2-b][1,4]oxazin-6-yl)methyl]amino}-1-piperidinyl)methyl]-5,6-dihydro-4H-[1,3]thiazolo[5,4,3-ij]quinolin-2-one dihydrochloride] the MIC was ≤ 1.8 µg/mL.

In the case of `O=C1COc2ccc(CNC3CCN(CC4CCN5C(=O)COc6ccc(F)c4c65)CC3)nc2N1` (centres unmarked) [Example 37, 8-Fluoro-7-[(4-{[(3-oxo-3,4-dihydro-2H-pyrido[3,2-b][1,4]oxazin-6-yl)methyl]amino}-1-piperidinyl)methyl]-6,7-dihydro-5H-[1,4]oxazino [2,3,4-ij]quinolin-3(2H)-one dihydrochloride], the MIC is reported as ≤ 1.8 µg/mL.
